# In patent US6942876B2, “Analgesic compositions comprising anti-epileptic compounds and methods of using same” (Warner-Lambert Company, priority 1997, dated 2005):
# Test system: Carrageenan-induced thermal hyperalgesia
# Experiment: carrageenan rat footpad thermal hyperalgesia test (Hargreaves test)
# Format: in vivo
# Description: In this example, gabapentin, naproxen sodium, and the combination of gabapentin and naproxen sodium were evaluated in a standard rat carrageenan footpad thermal hyperalgesia assay. This assay utilizes an extract of seaweed (carrageenan) that, when injected into the footpad of test animals, causes a sterile inflammation, thereby lowering the pain threshold.
# Male Sprague-Dawley rats (200-250 g, Sasco Laboratories) were used. Rats were group housed 5/cage on a 12-hour light:dark cycle with free access to food and water. Rats received only one dose of a drug or drug combination. All drugs were administered orally by gavage.
# Dose-effect curves were first determined for (1) gabapentin by itself and (2) a prototypic NSAID (e.g., naproxen) by itself The ED50 value and 95% confidence limits of each agent was determined, as was the time to peak effect. […]
# Carrageenan-induced thermal hyperalgesia: Rats were acclimated to a testing chamber whose glass floor was maintained at 25° C. Thirty minutes later, a high intensity beam of light was focused through the glass on the ventral surface of each hindpaw, and the latency to reflex withdrawal of the paw from the light beam was measured to the nearest 0.1 second. […]
# Data were expressed as the mean ±SEM. […]
compound,measurement,setting,value
"COc1ccc2cc([C@H](C)C(=O)O)ccc2c1 [Naproxen sodium, naproxen sodium]",anti-hyperalgesic action,"PO, gabapentin 3-100 mg/kg, naproxen sodium 0.3-30 mg/kg, fixed-ratio combinations at various dosages",anti-hyperalgesic actions
same,ED50,"Rattus norvegicus, 2 h, single drug, oral gavage, male Sprague-Dawley rats, paw flick latency 120 min after dosing, 95% confidence limits in parentheses",0.36 mg/kg
